The results in this text go back to US20180028480A1, “METHODS OF REDUCING OR PREVENTING OXIDATIVE MODIFICATION OF MEMBRANE POLYUNSATURATED FATTY ACIDS” (Amarin Pharmaceuticals Ireland Limited, priority 2015, published 2018).

The nature of this assay: LOOH formation in glucose-treated model membranes, EPA versus EA and ETE (Example 5). The class given is biochemical. The conditions noted are these: FIG. 8. Here is the method: An experiment was conducted to compare the ability of EPA to prevent lipid hydroperoxide formation in model membranes treated with glucose to two other 20-carbon fatty acids: eicosanoic acid (“EA,” also referred to as arachidic acid, C20:0) and eicosatrienoic acid (“ETE,” C20:3, n-3). All MLV samples were subjected to time-dependent autoxidation by incubating at 37° C. in an uncovered, shaking water bath. This method allows lipid peroxidation to occur gradually without requiring the use of exogenous initiators. Small aliquots (5-100 μL) of each sample were removed, immediately following MLV preparation (0 hr) and after exposing samples to oxidative conditions for 72 or 96 hr, and combined with 1.0 mL of activated CHOD-iodide color reagent. Aliquot volume was reduced with each successive time point to ensure that spectrophotometric readings were within the optimal adsorption range. Test samples were covered and incubated in darkness at room temperature for at least 4 hr. Sample absorbances were then measured against a CHOD blank at 365 nm using a Beckman DU-640 spectrophotometer. The CHOD colorimetric assay is based on the oxidation of iodide (I^−) by lipid hydroperoxide (LOOH) to form triiodide (I3^−), the quantity of which is directly proportional to the amount of LOOH present in the lipid sample. The molar absorptivity (ε) of I3^− is 2.46×10^4 M^−1 cm^−1 at 365 nm.

`CC/C=C\C/C=C\C/C=C\C/C=C\C/C=C\CCCC(=O)O` [EPA, cis-5,8,11,14,17-Eicosapentaenoic acid]: the “LOOH formation compared to vehicle, glucose, glucose and EA, glucose and ETE” value is “significantly less LOOH formation”.
